Experimental data taken from publication PMC8123576 (International Journal of Molecular Sciences, 2021).

What was measured:
A. flavus = test: microbe, parasite or virus in culture; format: cell-based, Aspergillus flavus
[1] = test system: aflatoxin accumulation by A. flavus; test: microbe, parasite or virus in culture; format: cell-based, Aspergillus flavus

| Molecule | A.I. (%) (aflatoxin accumulation inhibition) ([1]; 50 µM) | A.I. (%) (aflatoxin accumulation inhibition) ([1]; 100 µM) | also measured |
| --- | --- | --- | --- |
| NC(=S)NN=Cc1cccc(O)c1O [2,3‐dihydroxybenzaldehyde thiosemicarbazone] | – | – | G.I. (%) (A. flavus growth inhibition) (A. flavus; 50 µM): 53,0% |
| CC(=O)c1ccco1 [2-acetyl-furan] | – | – | activity of parent compounds on aflatoxin biosynthesis [1]: fundamentally inactive |
| CC(=O)c1cccs1 [2-acetyl-thiophene] | – | – | activity of parent compounds on aflatoxin biosynthesis [1]: fundamentally inactive |
| CCCCCC=CC=NNC(N)=S [2‐Octenal thiosemicarbazone] | – | – | G.I. (%) (A. flavus growth inhibition) (A. flavus; 50 µM): 93,0%; G.I. (%) (A. flavus growth inhibition) (A. flavus; 100 µM): 96,0% |
| O=C1c2ccccc2C(=O)c2cc(CO)ccc21 [2‐hydroxymethyl‐anthraquinone] | – | – | G.I. (%) (A. flavus growth inhibition) (A. flavus; 100 µM): 62,0% |
| CC(C)c1ccccc1C=NNC(N)=S [2‐isopropylbenzaldehyde thiosemicarbazone] | 67,0% | 97,0% | – |
| NC(=S)NN=CCCc1ccccc1 [3‐Phenylpropanal thiosemicarbazone] | – | – | G.I. (%) (A. flavus growth inhibition) (A. flavus; 50 µM): 100%; G.I. (%) (A. flavus growth inhibition) (A. flavus; 100 µM): 107,0% |
| CCC(/C=C/c1ccc(OC)cc1)=NNC(N)=S [(E)‐1‐(4‐methoxyphenyl)‐1‐pentene‐3‐one‐3‐thiosemicarbazone] | – | – | G.I. (%) (A. flavus growth inhibition) (A. flavus; 50 µM): 62,0%; G.I. (%) (A. flavus growth inhibition) (A. flavus; 100 µM): 74,0% |
| NC(=S)NN=C(c1ccccc1)c1ccccc1 [Benzophenone thiosemicarbazone] | – | – | inhibition at 100 µM (A. flavus; Aspergillus flavus, 100 µM, read-out: G.I. (%) (A. flavus growth inhibition)): 53% |
| CC12CCC(C(=NNC(N)=S)C1=NNC(N)=S)C2(C)C (centres unmarked) [Camphorquinone bis thiosemicarbazone] | – | – | G.I. (%) (A. flavus growth inhibition) (A. flavus; 100 µM): 58,0% |
| CCCCCC1=C(C)CCC1=NNC(N)=S [Dihydrojasmone thiosemicarbazone] | 51,5% | 63,2% | – |
| CCC=CCC1=C(C)CCC1=NNC(N)=S [Jasmone thiosemicarbazone] | 88,0% | 90,0% | – |
| CN(C)C(=S)NN=CC=Cc1ccccc1.CN(C)C(=S)NN=CC=Cc1ccccc1.[Zn+2] [Zn(II) Cinnamaldehyde bis 4,4‐dimethyl thiosemicarbazonate] | 75,0% | 100% | – |
| Cu(II) 1‐(3‐methoxyphenyl)heptan‐1‐one bisthiosemicarbazonate | 82,5% | 95,2% | – |
| Cu(II) 1‐isopropylbenzaldehyde bisthiosemicarbazonate | – | 73,5% | – |
| Cu(II) 2‐isopropylbenzaldehyde bisthiosemicarbazonate | 65,9% | 80,8% | – |
| Cu(II) 3,4‐dimethoxybenzaldehyde bis 4,4'‐dimethyl thiosemicarbazonate | 61,4% | 84,6% | – |
| Cu(II) Camphorquinone bisthiosemicarbazonate | – | 53,0% | – |
| Cu(II) Dihydrojasmone bisthiosemicarbazonate | 66,0% | 80,0% | – |
| Cu(II) benzaldehyde 4,4'‐dimethyl thiosemicarbazonate | – | 67,0% | – |
| Cu(II) heptanal bisthiosemicarbazonate | 62,8% | 85,5% | – |
| Ni(II) perillaldehyde bisthiosemicarbazonate | 85,2% | 90,1% | – |
| Zn(II) 1‐isopropylbenzaldehyde bis thiosemicarbazone diacetate | 69,3% | 81,9% | – |
| Zn(II) 1‐isopropylbenzaldehyde bisthiosemicarbazonate | 55,3% | 100% | – |
| Zn(II) 2‐isopropylbenzaldehyde bisthiosemicarbazonate | 93,8% | 100% | – |
